Results reported in the NIST ThermoML archive (doi:10.1016/j.jct.2015.08.013).

Assay: xn = mol fraction of the nth substance listed
Conditions: 100 kPa, Liquid; for mass density: Vibrating tube method; for viscosity: Capillary tube (Ostwald / Ubbelohde) method

O=C1CCCO1 [γ-butyrolactone] + CN1CCCC1=O
Conditions	mass density [kg/m3]	viscosity [mPa·s]
293.15 K, x2 = 0	1129.2	–
293.15 K, x2 = 0.1011	1117.01	–
293.15 K, x2 = 0.1484	1111.57	–
293.15 K, x2 = 0.2506	1100.29	–
293.15 K, x2 = 0.3027	1094.76	–
293.15 K, x2 = 0.4002	1084.79	–
293.15 K, x2 = 0.4953	1075.51	–
293.15 K, x2 = 0.5983	1065.98	–
293.15 K, x2 = 0.6977	1057.25	–
293.15 K, x2 = 0.8022	1048.51	–
293.15 K, x2 = 0.851	1044.56	–
293.15 K, x2 = 0.9418	1037.29	–
298.15 K, x2 = 0	1124.26	1.73
298.15 K, x2 = 0.1002	–	1.719
298.15 K, x2 = 0.1011	1112.14	–
298.15 K, x2 = 0.1484	1106.72	–
298.15 K, x2 = 0.2002	–	1.71
298.15 K, x2 = 0.2506	1095.51	–
298.15 K, x2 = 0.3027	1090	–
298.15 K, x2 = 0.3078	–	1.701
298.15 K, x2 = 0.3999	–	1.694
298.15 K, x2 = 0.4002	1080.08	–
298.15 K, x2 = 0.4953	1070.84	–
298.15 K, x2 = 0.4998	–	1.689
298.15 K, x2 = 0.5983	1061.35	–
298.15 K, x2 = 0.6003	–	1.685
298.15 K, x2 = 0.6977	1052.68	–
298.15 K, x2 = 0.7002	–	1.682
298.15 K, x2 = 0.8011	–	1.679
298.15 K, x2 = 0.8022	1043.99	–
298.15 K, x2 = 0.851	1040.04	–
298.15 K, x2 = 0.8998	–	1.678
298.15 K, x2 = 0.9418	1032.8	–
303.15 K, x2 = 0	1119.33	1.63
303.15 K, x2 = 0.1002	–	1.614
303.15 K, x2 = 0.1011	1107.27	–
303.15 K, x2 = 0.1484	1101.88	–
303.15 K, x2 = 0.2002	–	1.601
303.15 K, x2 = 0.2506	1090.7	–
303.15 K, x2 = 0.3027	1085.22	–
303.15 K, x2 = 0.3078	–	1.587
303.15 K, x2 = 0.3999	–	1.577
303.15 K, x2 = 0.4002	1075.32	–
303.15 K, x2 = 0.4953	1066.12	–
303.15 K, x2 = 0.4998	–	1.568
303.15 K, x2 = 0.5983	1056.67	–
303.15 K, x2 = 0.6003	–	1.559
303.15 K, x2 = 0.6977	1048.03	–
303.15 K, x2 = 0.7002	–	1.552
303.15 K, x2 = 0.8011	–	1.546
303.15 K, x2 = 0.8022	1039.38	–
303.15 K, x2 = 0.851	1035.46	–
303.15 K, x2 = 0.8998	–	1.541
303.15 K, x2 = 0.9418	1028.25	–
308.15 K, x2 = 0	1114.31	1.52
308.15 K, x2 = 0.1002	–	1.504
308.15 K, x2 = 0.1011	1102.38	–
308.15 K, x2 = 0.1484	1097.05	–
308.15 K, x2 = 0.2002	–	1.49
308.15 K, x2 = 0.2506	1085.98	–
308.15 K, x2 = 0.3027	1080.55	–
308.15 K, x2 = 0.3078	–	1.477
308.15 K, x2 = 0.3999	–	1.468
308.15 K, x2 = 0.4002	1070.75	–
308.15 K, x2 = 0.4953	1061.64	–
308.15 K, x2 = 0.4998	–	1.458
308.15 K, x2 = 0.5983	1052.28	–
308.15 K, x2 = 0.6003	–	1.45
308.15 K, x2 = 0.6977	1043.71	–
308.15 K, x2 = 0.7002	–	1.443
308.15 K, x2 = 0.8011	–	1.437
308.15 K, x2 = 0.8022	1035.14	–
308.15 K, x2 = 0.851	1031.26	–
308.15 K, x2 = 0.8998	–	1.433
308.15 K, x2 = 0.9418	1024.11	–
313.15 K, x2 = 0	1109.23	1.42
313.15 K, x2 = 0.1002	–	1.404
313.15 K, x2 = 0.1011	1097.36	–
313.15 K, x2 = 0.1484	1092.04	–
313.15 K, x2 = 0.2002	–	1.391
313.15 K, x2 = 0.2506	1081.02	–
313.15 K, x2 = 0.3027	1075.61	–
313.15 K, x2 = 0.3078	–	1.379
313.15 K, x2 = 0.3999	–	1.37
313.15 K, x2 = 0.4002	1065.84	–
313.15 K, x2 = 0.4953	1056.76	–
313.15 K, x2 = 0.4998	–	1.361
313.15 K, x2 = 0.5983	1047.44	–
313.15 K, x2 = 0.6003	–	1.354
313.15 K, x2 = 0.6977	1038.91	–
313.15 K, x2 = 0.7002	–	1.348
313.15 K, x2 = 0.8011	–	1.344
313.15 K, x2 = 0.8022	1030.36	–
313.15 K, x2 = 0.851	1026.5	–
313.15 K, x2 = 0.8998	–	1.34
313.15 K, x2 = 0.9418	1019.36	–
318.15 K, x2 = 0	1104.1	1.35
318.15 K, x2 = 0.1002	–	1.331
318.15 K, x2 = 0.1011	1092.31	–
318.15 K, x2 = 0.1484	1087.03	–
318.15 K, x2 = 0.2002	–	1.316
318.15 K, x2 = 0.2506	1076.08	–
318.15 K, x2 = 0.3027	1070.71	–
318.15 K, x2 = 0.3078	–	1.302
318.15 K, x2 = 0.3999	–	1.291
318.15 K, x2 = 0.4002	1061.01	–
318.15 K, x2 = 0.4953	1051.99	–
318.15 K, x2 = 0.4998	–	1.28
318.15 K, x2 = 0.5983	1042.73	–
318.15 K, x2 = 0.6003	–	1.271
318.15 K, x2 = 0.6977	1034.27	–
318.15 K, x2 = 0.7002	–	1.263
318.15 K, x2 = 0.8011	–	1.256
318.15 K, x2 = 0.8022	1025.76	–
318.15 K, x2 = 0.851	1021.91	–
318.15 K, x2 = 0.8998	–	1.251
318.15 K, x2 = 0.9418	1014.8	–
323.15 K, x2 = 0	1098.88	1.3
323.15 K, x2 = 0.1002	–	1.278
323.15 K, x2 = 0.1011	1087.72	–
323.15 K, x2 = 0.1484	1082	–
323.15 K, x2 = 0.2002	–	1.261
323.15 K, x2 = 0.2506	1071.16	–
323.15 K, x2 = 0.3027	1065.83	–
323.15 K, x2 = 0.3078	–	1.245
323.15 K, x2 = 0.3999	–	1.232
323.15 K, x2 = 0.4002	1056.23	–
323.15 K, x2 = 0.4953	1047.31	–
323.15 K, x2 = 0.4998	–	1.219
323.15 K, x2 = 0.5983	1038.15	–
323.15 K, x2 = 0.6003	–	1.208
323.15 K, x2 = 0.6977	1029.76	–
323.15 K, x2 = 0.7002	–	1.198
323.15 K, x2 = 0.8011	–	1.189
323.15 K, x2 = 0.8022	1021.34	–
323.15 K, x2 = 0.851	1017.51	–
323.15 K, x2 = 0.8998	–	1.182
323.15 K, x2 = 0.9418	1010.46	–
